From article PMC8605905 (Oxidative Medicine and Cellular Longevity, 2021)

Legend:
Type in all cases: cell-based, Human
[1] = system: ∆K280 tauRD-DsRed SH-SY5Y cells; assay: Western blot in ΔK280 tauRD-DsRed SH-SY5Y cells; details: LM-021 10 μM, immunoblot
Description: (§1) To monitor the cAMP-mediated signal transduction pathway, CRE-GFP 293 cells in 6-well plates (1 × 10^6/well) were pretreated with kinase inhibitor H-89 (LC Laboratories, Woburn, MA, USA), KN-62 (Cayman Chemical, Ann Arbor, MI, USA), U0126 (LC Laboratories), or wortmannin (LC Laboratories) (10 μM) for 4 h before forskolin or LM-021 (10 μM) addition for 5 h. GFP fluorescence/protein and total/phosphorylated PKA, CaMKII, ERK, PI3K, and CREB levels were examined. In addition, Aβ-GFP or ∆K280 tauRD-DsRed SH-SY5Y cells were treated with retinoic acid (10 μM) on day 1, followed by the addition of LM-021 (5 or 10 μM) and doxycycline (5 or 2 μg/ml) on day 2, as described. Kinase inhibitors (10 μM) were added on day 6. On day 8, the cells were collected for protein expression analysis of BDNF, BCL2 (BCL2 apoptosis regulator), and BAX (BCL2 associated X, apoptosis regulator), and total/phosphorylated PKA, CaMKII, ERK, PI3K, and CREB. Also, cells were stained with DAPI and assessed for neurite outgrowth as described above.
(§2) Total proteins from CRE-GFP 293 and Aβ-GFP, ∆K280 tauRD-DsRed SH-SY5Y cells were extracted using lysis buffer (50 mM Tris-HCl (pH 8.0), 150 mM NaCl, 1 mM EDTA (pH 8.0), 1 mM EGTA (pH 8.0), 0.1% SDS, 0.5% sodium deoxycholate, 1% Triton X-100) containing phosphatase and protease inhibitor cocktails (Sigma-Aldrich). Protein concentrations were measured using a protein assay kit (Bio-Rad, Hercules, CA, USA), and 20 μg of proteins was separated with 10% SDS-PAGE and blotted onto polyvinylidene difluoride (PVDF) membranes (Sigma-Aldrich). After blocking, the membrane blot was incubated with primary antibody against GFP (1 : 500; Santa Cruz Biotechnology, Santa Cruz, CA, USA), PKA (1 : 1000; R&D Systems, Minneapolis, MN, USA), p-PKA (T197) (1 : 1000; Cell Signaling, Danvers, MA, USA), ERK (1 : 500; Cell Signaling), p-ERK (T202/Y204) (1 : 500; Cell Signaling), CaMKII (1 : 1000; Santa Cruz Biotechnology), p-CaMKII (T286) (1 : 1000; Cell Signaling), CREB (1 : 1000; Santa Cruz Biotechnology), p-CREB (S133) (1 : 1000; Millipore, Billerica, MA, USA), BDNF (1 : 500; Santa Cruz Biotechnology), BCL2 (1 : 500; BioVision), BAX (1 : 500; BioVision), GAPDH (glyceraldehyde-3-phosphate dehydrogenase, as a loading control) (1 : 1000; MDBio, Taipei, Taiwan), or β-tubulin (1 : 1000, Sigma-Aldrich, as a loading control). The immune complexes were visualized using horseradish peroxidase-conjugated goat anti-mouse or goat anti-rabbit IgG antibody (1 : 5000, GeneTex, Irvine, CA, USA) and a chemiluminescent substrate (Millipore).

CRE-GFP 293 cells = assay: CRE-GFP 293 reporter cell assay (flow cytometry); details: 5–10 μM, 5 h, in the presence or absence of Ca2+ ionophore (2 μM)
Aβ-GFP SH-SY5Y cells = assay: Western blot in Aβ-GFP SH-SY5Y cells; details: LM-021 5 μM, immunoblot
Description: as §1, §2

CN(C)c1ccc(/C=C/C(=O)c2c(O)c3ccccc3oc2=O)cc1 [LM-021, (E)-3-(3-(4-(dimethylamino)phenyl)acryloyl)-4-hydroxy-2H-chromen-2-one]
BAX protein level [1]: decreased | Level of PKA, CaMKII, or ERK [1]: nor LM-021 treatment significantly altered | p-CREB, CREB, pro-BDNF, m-BDNF, and BCL2 protein levels [1]: significantly upregulated | p-PKA, p-CaMKII, and p-ERK protein levels [1]: increased | CRE-motif-driven GFP expression (CRE-GFP 293 cells): significantly activated | BAX protein levels (Aβ-GFP SH-SY5Y cells): reduced | PKA and ERK protein levels (Aβ-GFP SH-SY5Y cells): rescued the reduction in PKA and ERK, although not significantly | p-CREB, CREB, pro-BDNF, m-BDNF, and BCL2 protein levels (Aβ-GFP SH-SY5Y cells): significantly increased | p-PKA, p-CaMKII, and p-ERK protein levels (Aβ-GFP SH-SY5Y cells): significantly upregulated
